Test results: US20250018049A1, “COMPOUNDS FOR DEGRADING CYCLIN-DEPENDENT KINASE 2 VIA UBIQUITIN PROTEOSOME PATHWAY” (NIKANG THERAPEUTICS, INC., priority 2020, published 2025)

How the values were obtained:
Type in all cases: cell-based
CDK1 = target: T1, CDK1 (Homo sapiens, UniProt P06493); assay: Phospho-Rb HTRF measurement in KYSE520 cells (inhibition of CDK1); details: CDK2-dependent OVCAR3 vs CDK2-independent but CDK1-dependent KYSE520 cell line
T1 construct: endogenous in cells; host or cells: KYSE520
T1 sequence (P06493 whole entry): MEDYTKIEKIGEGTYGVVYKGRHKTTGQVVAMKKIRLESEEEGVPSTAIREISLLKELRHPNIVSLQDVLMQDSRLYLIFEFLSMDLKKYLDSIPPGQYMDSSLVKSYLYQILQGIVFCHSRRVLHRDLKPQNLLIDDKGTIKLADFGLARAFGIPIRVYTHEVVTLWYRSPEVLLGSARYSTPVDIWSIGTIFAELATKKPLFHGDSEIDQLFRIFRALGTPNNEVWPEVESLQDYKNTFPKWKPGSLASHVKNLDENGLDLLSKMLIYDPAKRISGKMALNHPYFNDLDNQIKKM
T1 sequence (P14635 whole entry partner): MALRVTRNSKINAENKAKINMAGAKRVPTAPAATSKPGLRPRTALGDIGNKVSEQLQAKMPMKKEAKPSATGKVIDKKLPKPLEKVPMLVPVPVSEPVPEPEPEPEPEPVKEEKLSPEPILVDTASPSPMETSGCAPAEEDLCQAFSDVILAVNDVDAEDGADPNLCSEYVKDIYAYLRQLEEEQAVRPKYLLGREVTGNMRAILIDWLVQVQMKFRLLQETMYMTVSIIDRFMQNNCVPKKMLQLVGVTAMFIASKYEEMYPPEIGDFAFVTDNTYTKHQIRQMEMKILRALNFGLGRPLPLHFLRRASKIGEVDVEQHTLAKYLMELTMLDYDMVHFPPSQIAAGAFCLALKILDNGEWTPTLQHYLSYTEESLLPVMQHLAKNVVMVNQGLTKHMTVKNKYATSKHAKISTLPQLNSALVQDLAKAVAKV
Experimental: Phosphorylation of RB protein at S780 and S807/811 were measured using HTRF phospho-RB cellular kits (Cat #64RBS780PEG and 64RBS807PEG) from Cisbio.
On Day 1, OVCAR3 or KYSE520 cells were seeded into 96-well tissue-culture treated plates at 20,000 cells/well in 200 μL and incubated overnight at 37° C. in CO2 atmosphere. On Day 2, the cells were treated with test compounds at concentrations from 0.3 to 10,000 nM using HP D300 digital dispenser. Twenty-four hours after compound treatment, cell culture media was removed by flicking the plate and tapping the plate against clean paper towel. Immediately 30 μL 1× lysis buffer was supplemented from the kit and the plate was incubated at room temperature on shaker for 30 min. After homogenization by pipetting up and down, 8 μL cell lysate from 96-well cell culture plate was transferred to 384-well small volume white detection plate. 2 μL premixed detection solution was added and the plate was covered with sealer. To prepare the detection solution, d2 conjugated-phospho-RB antibody and Eu-cryptate conjugated phosphor-RB antibody were diluted into detection buffer following manufacturer's instruction. Detection plates were incubated for 4 h at room temperature and read on ClarioStar (BMG Labtech) in TR-FRET mode (665 nM and 620 nM). The TR-FRET ratio (665 nM/620 nM) was plotted against the compound concentration and normalized to DMSO controls. Half maximal inhibition concentration (IC50) values are calculated with a four-parameter logistic fit using GraphPad Prism (version 8; La Jolla, CA).
Compound 5 was not tested in the KYSE520 cell line.

CDK2 [1] = target: T2, CDK2 (Homo sapiens, UniProt P24941); assay: NanoBRET CDK2 engagement assay; set-up: expressed in transfected cells; details: OVCAR3 cells with stable CDK2-Luciferase vector, 24 hours treatment
Outline: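 OVCAR3 cells stably expressing CDK2-luciferase, in Opti-MEM with 1% FBS, treated 24 h at 37° C with compound from 3 μM in ½-log steps to 0.3 nM; NanoBRET tracer present for final 2 h. Donor/acceptor emission read; engagement normalized to DMSO as 100% signal, IC50 by curve fit.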

CDK2 [2] = target: T2, CDK2; assay: Phospho-Rb HTRF measurement in OVCAR3 cells (inhibition of CDK2); set-up: High-Throughput Measurement of Cellular Endogenous CDK2; endogenous in cells; host or cells: OVCAR3; details: pRB(S807/811) assay, 24 h compound treatment
CDK2 [3] = target: T2, CDK2; assay: CDK2 HTRF assay (cellular endogenous CDK2 level); set-up: High-Throughput Measurement of Cellular Endogenous CDK2; endogenous in cells; host or cells: OVCAR3; details: OVCAR-3; OVCAR3 cells, 24 hours, 0.3 to 10,000 nM; read-out: max degradation of CDK2
Outline: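 OVCAR3 cells treated 24 h with compounds at 0.3–10,000 nM, then lysed and total CDK2 measured by HTRF using d2- and Eu-cryptate-labelled CDK2 antibodies (TR-FRET 665/620 nm ratio). Signal normalized to DMSO controls; DC50 from four-parameter logistic fit.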

| times more potent pRb inhibition in OVCAR3 than in KYSE520 (CDK1) [times] | IC50 (CDK2 [1]) [µM] | IC50 (CDK2 [2]) [µM] | Dmax (CDK2 [3]) [%] | Compound |
| --- | --- | --- | --- | --- |
| ~11 | 1.17 | 0.422 |  | O=C1CCC(N2C(=O)c3cccc(NCCOCCOCCOCCNS(=O)(=O)N4CCC(Nc5ncc6ccc(=O)n(C7CCCC7)c6n5)CC4)c3C2=O)C(=O)N1 (centres unmarked) [Compound 21, 4-((8-cyclopentyl-7-oxo-7,8-dihydropyrido[2,3-d]pyrimidin-2-yl)amino)-N-(2-(2-(2-(2-((2-(2,6-dioxopiperidin-3-yl)-1,3-dioxoisoindolin-4-yl)amino)ethoxy)ethoxy)ethoxy)ethyl) piperidine-1-sulfonamide] |
| ~20.5 | 0.214 | 0.267 |  | Cn1c(=O)n(C2CCC(=O)NC2=O)c2cccc(CNCCOc3cccc(S(=O)(=O)N4CCC(Nc5ncc6ccc(=O)n(C7CCCC7)c6n5)CC4)c3)c21 (centres unmarked) [Compound 41, 3-(4-(((2-(3-((4-((8-cyclopentyl-7-oxo-7,8-dihydropyrido[2,3-d]pyrimidin-2-yl)amino)-piperidin-1-yl)sulfonyl)phenoxy)ethyl)amino)-methyl)-3-methyl-2-oxo-2,3-dihydro-1H-benzo[d]imidazol-1-yl)piperidine-2,6-dione] |
| ~10.5 | 0.086 | 0.0503 | 35 to 90 | O=C1CCC(N2Cc3cc(N4CCC(CN5CCC(c6cccc(S(=O)(=O)N7CCC(Nc8ncc9ccc(=O)n(C%10CCCC%10)c9n8)CC7)c6)CC5)CC4)ccc3C2=O)C(=O)N1 (centres unmarked) [Compound 34, 3-(5-(4-((4-(3-((4-((8-cyclopentyl-7-oxo-7,8-dihydropyrido[2,3-d]pyrimidin-2-yl)amino)-piperidin-1-yl)sulfonyl)phenyl)piperidin-1-yl)-methyl)piperidin-1-yl)-1-oxoisoindolin-2-yl)-piperidine-2,6-dione] |
| ~21 | 0.176 | 0.0529 | 35 to 90 | O=C1CCC(N2Cc3cc(N4CC(N5CCC(Oc6cccc(S(=O)(=O)N7CCC(Nc8ncc9ccc(=O)n(C%10CCCC%10)c9n8)CC7)c6)CC5)C4)ccc3C2=O)C(=O)N1 (centres unmarked) [Compound 28, 3-(5-(3-(4-(3-((4-((8-cyclopentyl-7-oxo-7,8-dihydropyrido[2,3-d]pyrimidin-2-yl)amino)-piperidin-1-yl)sulfonyl)phenoxy)piperidin-1-yl)-azetidin-1-yl)-1-oxoisoindolin-2-yl)piperidine-2,6-dione] |
